Measured values taken from publication PMC8005090, “Bioanalytical Method Development and Validation Study of Neuroprotective Extract of Kashmiri Saffron Using Ultra-Fast Liquid Chromatography-Tandem Mass Spectrometry (UFLC-MS/MS): In Vivo Pharmacokinetics of Apocarotenoids and Carotenoids” (Molecules, 2021).
Read-outs that look alike come from different tables or passages of the source.

Assays:
[1] = Oral pharmacokinetics of CSE constituents in rat plasma (UFLC-MS/MS); type: in vivo, Sprague–Dawley rats; details: single oral CSE 40 mg/kg, n = 6, mean ± SEM
Protocol: The PK parameters were calculated by non-compartmental analysis. The PK parameters, such as maximum plasma concentration (Cmax) and the time to reach the maximum plasma concentration (Tmax), were derived directly from the experimental data. The trapezoidal equation calculated the areas under the plasma concentration-time curves from 0 to the time of the last quantifiable concentration (AUC0−t). The AUC was extrapolated to infinity AUC0-∞ using Ct/Kel, where Ct is the last measured MET concentration. Kel is the elimination rate constant determined from the terminal slope of the log concentration-time plot. The Kel was obtained from the linear regression curve slope by fitting the terminal concentrations’ natural logarithms versus time. The terminal elimination half-life (t1/2) was calculated by 0.693/Kel. The clearance (CL) was calculated as the quotient of the dose (D) and AUC0−∞. All values were expressed as mean ± SEM.
Male Sprague–Dawley rats (250–300 g) were purchased from Crystal Biological Solution, Pune, Maharashtra, India. The animal studies were sanctioned by the Animal Ethics Committee of Crystal Biological Solution, Pune. It was carried out following the Animal Ethics Procedures and Guidelines of Control and Supervision of Experiments on Animals (CPCSEA) committee requirements. Animals were housed 3–4 per cage in rooms with constant temperature (25 ± 2 °C), humidity (50 ± 20%), and 12 h dark-light cycle. All animals in the oral group fasted overnight before the dosing, and food was provided 8 h post-dose, and water was ad libitum. The investigational CSE was fed orally to an individual rat as per its body weight.
The UFLC-MS/MS analysis was performed on a Shimadzu UFLC system (Kyoto, Japan) consisting of a DGU-20A5R degasser, LC-30AD pump, SIL-30AC autosampler, CTO-20AC column oven. The chromatographic separation was carried out in a single analytical run divided into loading and eluting phases by alternating the electronic valve. At the loading phase (−1–0 min), the auto-sampler was responsible for injecting 50 µL of the sample. The LC-30AD pump was responsible for delivering water containing 0.1% formic acid to the pre-column (Phenomenex Security Guard ULTRA with C8 Cartridge) at 0.8 mL/min to remove protein and retain analytes. At the eluting phase (0–12 min), the retained components were flushed from the pre-column into the analytical column (Dr. Maisch GmbH Reprosil Gold XBD C8, 50 mm × 4.6 mm, i.d., 1.8 µm) eluting as per time programmed gradient. The flow rate of the mobile phase was 0.8 mL/min. The mobile phase consists of a mixture of water containing 0.1% formic acid (%v/v) (A) and 100% acetonitrile (B). The gradient elution program was carried out for chromatographic separation: 0.01–1.91 min, 20% B; 1.91–5.91 min, 2090% B; 5.91–6.91 min, 90–80% B; 6.91–8.24 min, 80–20% B; and 8.24–12 min, 20% B. The column oven temperature was set at 30 °C. The MS/MS analysis was carried out on an LCMS-8045 triple-quadrupole mass spectrometer (Shimadzu, Kyoto, Japan) equipped with positive and negative electrospray ionization (ESI) interfaces using the MRM mode. The compound and source dependent parameters were defined as follows: nitrogen was used as nebulizing and drying gas; argon was used as the collision gas. Quadruple voltage was set at Q1 RF gain: 4998 Q1 RF offset 4990 and Q1 post-rod bias: −5.0 V CID CELL exit lens: −4.0 V, interface: ESI, interface temperature: 350 °C, desolvation line (DL) temperature: 250 °C, nebulizing gas flow: 2.50 L/min, heating gas flow: 10.00 L/min heat block: 300 °C; drying gas flow: 10.00 L/min.
An aliquot of 45 µL of rat plasma was spiked with each 5 µL of IS1 and IS2, and 200 µL of methanol was added, vortexed for 1–2 min, then centrifuged for 10 min at 2000 RPM. Collect the supernatant into HPLC vials and injected it into the UFLC-MS/MS system for analysis. […]

[2] = Stability of analytes in rat plasma (autosampler, room temperature, freeze-thaw); type: in vitro ADME; details: for analyte stability in plasma: LQC and HQC, processed plasma samples, stable under restricted storage conditions; for Room Temperature Stability (%, mean ± SD) / Autosampler Stability (%, mean ± SD) / Freeze-Thaw Stability (%, mean ± SD): rat plasma, n = 6; for Room Temperature Stability (%, mean ± SD): ambient temperature 4 h; for Autosampler Stability (%, mean ± SD): autosampler 8 °C for 24 h; for Freeze-Thaw Stability (%, mean ± SD): three freeze-thaw cycles at −20 ± 4 °C
Protocol: The stability was performed at different sets of working and storage conditions. […] The stability conditions of the method studied were at ambient temperature for 4 h (room-temperature stability), in the autosampler at 8 °C conditions for 24 h (autosampler stability), and with three freeze-thaw cycles at −20 ± 4 °C condition (freeze-thaw stability). The samples were prudent to be stable if the measured concentration was within ±15% of the nominal concentration.

[3] = tested on: mice; set-up: method as in PMID 28471166, PMID 31459089, PMID 33404280; details: by inducing autophagy mediated by AMPK pathway activation; cited from earlier work
[4] = male, Sprague-Dawley, rat, plasma, po, 40 mg/kg
[5] = male, Sprague-Dawley, rat, plasma, po, 40 mg/kg, read-out: Tmax

| Compound | half-life [1, 4] [h] | Tmax [1, 5] [h] | AUC(0-inf) ([1]; male, Sprague-Dawley) [ng·h/mL] | AUC(0-t) ([1]; male, Sprague-Dawley) [ng·h/mL] | Cmax ([1]; male, Sprague-Dawley) [ng/mL] | CL [1] | Vd [1] [L/kg] | Tmax [1] [h] | analyte stability in plasma [2] | Room Temperature Stability (%, mean ± SD) ([2]; nominal 30.00 ng/mL (LQC)) [ng/mL] | Autosampler Stability (%, mean ± SD) ([2]; nominal 30.00 ng/mL (LQC)) [ng/mL] | Freeze-Thaw Stability (%, mean ± SD) ([2]; nominal 30.00 ng/mL (LQC)) [ng/mL] | Room Temperature Stability (%, mean ± SD) ([2]; nominal 2400.00 ng/mL (HQC)) [ng/mL] | Autosampler Stability (%, mean ± SD) ([2]; nominal 2400.00 ng/mL (HQC)) [ng/mL] | Freeze-Thaw Stability (%, mean ± SD) ([2]; nominal 2400.00 ng/mL (HQC)) [ng/mL] | memory function [3] |
| --- | --- | --- | --- | --- | --- | --- | --- | --- | --- | --- | --- | --- | --- | --- | --- | --- |
| CC(=C/C=C/C=C(C)/C=C/C=C(\C)C(=O)OC1OC(COC2OC(CO)C(O)C(O)C2O)C(O)C(O)C1O)/C=C/C=C(\C)C(=O)OC1OC(COC2OC(CO)C(O)C(O)C2O)C(O)C(O)C1O (stereo not drawn) [C4C, cis-4-GG-crocin] | 1.57 ± 1.57 | 3.25 ± 1.05 | 407 ± 187 | 396 ± 113 | 86.1 ± 15.7 | 326.37 ± 445.89 mL/h/kg | 4.29 ± 1.94 |  |  |  |  |  |  |  |  |  |
| CC1=C(C=O)C(C)(C)C[C@H](O[C@@H]2O[C@H](CO)[C@@H](O)[C@H](O)[C@H]2O)C1 [PIC, picrocrocin] | 0.793 ± 0.078 | 0.67 | 3820 ± 257 | 3690 ± 274 | 2720 ± 231 | 1935.88 ± 123.45 mL/h/kg | 2.258 ± 0.3168 | 0.792 ± 0.10 | stable | 30.40 ± 0.92 | 29.52 ± 1.26 | 29.98 ± 1.66 | 2406.19 ± 94.01 | 2463.69 ± 113.42 | 2498.53 ± 111.53 |  |
| CC1=C(C=O)C(C)(C)CC=C1 [SAF, safranal] |  |  |  |  |  |  |  |  | stable |  |  |  |  |  |  |  |
| CC(/C=C/C=C(\C)C(=O)OC1OC(CO)C(O)C(O)C1O)=C\C=C\C=C(C)\C=C\C=C(/C)C(=O)OC1OC(CO)C(O)C(O)C1O (stereo not drawn) [T2C, trans-2-gg-crocin] | 5.75 ± 0.73 | 4.34 ± 0.51 | 1680 ± 238 | 1530 ± 197 | 160 ± 15.2 | 234.77 ± 31.12 mL/h/kg | 2.006 ± 0.457 |  |  |  |  |  |  |  |  |  |
| CC(/C=C/C=C(\C)C(=O)OC1OC(CO)C(O)C(O)C1O)=C\C=C\C=C(C)\C=C\C=C(/C)C(=O)OC1OC(COC2OC(CO)C(O)C(O)C2O)C(O)C(O)C1O (stereo not drawn) [T3C, trans-3-Gg-crocin] | 4.6 ± 2.74 | 3.5 ± 1.09 | 55.5 ± 31.2 | 20.4 ± 9.64 | 7.59 ± 4.71 | 114,958.33 ± 71,000.46 mL/h/kg | 325.573 ± 13.099 |  |  |  |  |  |  |  |  |  |
| CC(/C=C/C=C(\C)C(=O)OC1OC(COC2OC(CO)C(O)C(O)C2O)C(O)C(O)C1O)=C\C=C\C=C(C)\C=C\C=C(/C)C(=O)OC1OC(COC2OC(CO)C(O)C(O)C2O)C(O)C(O)C1O (stereo not drawn) [T4C, trans-4-GG-crocin] | 3.36 ± 1 | 3.5 ± 0.57 | 370 ± 75.6 | 277 ± 67.7 | 49.3 ± 11.2 | 19,568.35 ± 4835.41 mL/h/kg | 69.250 ± 16.150 |  |  |  |  |  |  |  |  |  |
| CC(/C=C/C=C(\C)C(=O)O)=C\C=C\C=C(C)\C=C\C=C(/C)C(=O)O [TCT, trans crocetin] | > 11 | 6.83 ± 1.68 | 30700 | 23600 | 2080 ± 374 |  |  | 6.84 ± 1.69 | stable |  |  |  |  |  |  | improved memory function |
